This note sets out measurements from ChEMBL document CHEMBL1201862, “PubChem BioAssay data set” (2004).

The target of experiment [1] is T1, Protein phosphatase methylesterase 1 (Homo sapiens, UniProt Q9Y570). Description: endogenous PME-1 and serine hydrolase inhibition – cell lysate, mouse brain cytosol, FP-rhodamine, gel ABPP, selectivity assay for PME-1 inhibitor project, dose response, panel member PME-1 Assay Panel member description: Inhibition of endogenously expressed PME-1 (AID 2366).
Experiment [2] has as its target T1, Protein phosphatase methylesterase 1. Kind of experiment: Late stage results from the probe development effort to identify inhibitors of the protein methylesterase PME-1: Gel-based Activity-Based Protein Profiling (ABPP) IC50: Purified enzyme. It is filed as functional.
Experiment [3] deals with T2, Coagulation factor XII (Homo sapiens, UniProt P00748).
T2 sequence (P00748 whole entry): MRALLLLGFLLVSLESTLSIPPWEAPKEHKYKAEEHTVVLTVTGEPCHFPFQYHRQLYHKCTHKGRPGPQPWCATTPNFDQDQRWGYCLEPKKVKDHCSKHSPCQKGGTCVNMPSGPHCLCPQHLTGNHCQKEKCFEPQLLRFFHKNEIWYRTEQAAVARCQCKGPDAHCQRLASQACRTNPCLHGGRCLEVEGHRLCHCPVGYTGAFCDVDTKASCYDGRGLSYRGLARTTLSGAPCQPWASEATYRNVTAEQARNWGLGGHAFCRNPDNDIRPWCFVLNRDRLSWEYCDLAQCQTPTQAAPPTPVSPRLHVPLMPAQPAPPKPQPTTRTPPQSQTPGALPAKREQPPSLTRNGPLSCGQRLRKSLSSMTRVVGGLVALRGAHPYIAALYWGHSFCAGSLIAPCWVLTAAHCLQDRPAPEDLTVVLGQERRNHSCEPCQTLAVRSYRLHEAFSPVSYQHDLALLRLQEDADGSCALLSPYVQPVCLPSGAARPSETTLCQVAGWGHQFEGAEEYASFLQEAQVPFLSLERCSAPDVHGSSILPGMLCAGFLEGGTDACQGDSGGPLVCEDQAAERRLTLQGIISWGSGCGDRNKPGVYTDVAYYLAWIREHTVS
Kind of experiment: activated coagulation factor XII inhibitor potency, concentration-effect curve, cell-free (AID 716). It is filed as functional.

Experiment [4] addresses T3, Tyrosine-protein phosphatase non-receptor type 7 (Homo sapiens, UniProt P35236).
T3 sequence (P35236 whole entry): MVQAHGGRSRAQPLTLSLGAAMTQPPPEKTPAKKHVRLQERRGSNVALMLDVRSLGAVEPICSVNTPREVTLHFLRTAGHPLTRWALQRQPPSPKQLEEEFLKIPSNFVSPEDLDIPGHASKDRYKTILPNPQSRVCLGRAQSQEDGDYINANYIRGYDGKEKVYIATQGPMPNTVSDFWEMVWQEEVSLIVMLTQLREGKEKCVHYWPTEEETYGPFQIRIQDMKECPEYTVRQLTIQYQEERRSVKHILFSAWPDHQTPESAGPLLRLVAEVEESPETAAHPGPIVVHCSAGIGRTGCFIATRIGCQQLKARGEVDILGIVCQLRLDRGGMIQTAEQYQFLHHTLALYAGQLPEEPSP
Kind of experiment: redox-active compounds inhibiting HePTP phosphatase – biochemical, fluorescence, mechanism study (AID 2068). The class given is functional.

Experiment [5] has as its target 1-acylglycerol-3-phosphate O-acyltransferase ABHD5/Perilipin-5 (Homo sapiens, UniProt Q00G26+Q8WTS1). Description: Luminescence-based biochemical high throughput dose response assay for inhibitors of the interaction of the lipase co-activator protein, abhydrolase domain containing 5 (ABHD5) with perilipin-5 (MLDP; PLIN5) (2K validation set). [Related pubchem assays (depositor defined):AID493035, AID493241].

In experiment [6] the target is Perilipin-1/ABHD5 (Homo sapiens, UniProt O60240+Q8WTS1). Kind of experiment: Luminescence-based biochemical high throughput dose response assay for inhibitors of the interaction of the lipase co-activator protein, abhydrolase domain containing 5 (ABHD5) with perilipin-1 (PLIN1) (2K validation set). [Related pubchem assays (depositor defined):AID493027, AID493057].
Perilipin-1/ABHD5, sequence (Q8WTS1 whole entry, the tested form may be a part): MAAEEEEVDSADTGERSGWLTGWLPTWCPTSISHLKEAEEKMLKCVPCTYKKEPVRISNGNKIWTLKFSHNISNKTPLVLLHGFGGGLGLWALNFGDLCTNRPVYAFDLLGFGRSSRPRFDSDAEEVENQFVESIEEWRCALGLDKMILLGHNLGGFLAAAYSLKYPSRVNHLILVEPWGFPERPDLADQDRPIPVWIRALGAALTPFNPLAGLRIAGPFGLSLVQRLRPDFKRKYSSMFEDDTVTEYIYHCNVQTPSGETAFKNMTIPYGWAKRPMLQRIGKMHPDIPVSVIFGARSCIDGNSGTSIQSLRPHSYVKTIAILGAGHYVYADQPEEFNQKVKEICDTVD
Perilipin-1/ABHD5, sequence (O60240 whole entry, the tested form may be a part): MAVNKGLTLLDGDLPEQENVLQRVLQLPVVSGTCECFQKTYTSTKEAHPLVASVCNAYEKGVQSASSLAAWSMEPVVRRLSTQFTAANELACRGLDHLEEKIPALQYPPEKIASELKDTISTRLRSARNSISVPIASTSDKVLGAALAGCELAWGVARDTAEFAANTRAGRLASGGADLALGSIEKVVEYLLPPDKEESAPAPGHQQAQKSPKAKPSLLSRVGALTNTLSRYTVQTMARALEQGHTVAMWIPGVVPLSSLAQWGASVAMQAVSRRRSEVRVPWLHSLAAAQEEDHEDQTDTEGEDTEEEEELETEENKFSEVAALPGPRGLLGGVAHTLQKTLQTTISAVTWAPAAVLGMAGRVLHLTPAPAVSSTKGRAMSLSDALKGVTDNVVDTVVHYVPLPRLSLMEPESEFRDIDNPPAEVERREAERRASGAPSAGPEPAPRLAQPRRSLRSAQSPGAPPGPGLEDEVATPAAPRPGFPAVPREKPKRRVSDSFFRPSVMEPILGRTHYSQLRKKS

The target of experiment [7] is Hexokinase (Trypanosoma brucei, UniProt Q38C41). Description: Confirmation assay for inhibitors of Trypanosoma brucei hexokinase 1-Analogue-first series. [Related pubchem assays (depositor defined):AID1430, AID1632, AID2516, AID2560, AID2579, AID2600, AID449725, AID492951]. The class given is functional.
Hexokinase, sequence (Q38C41 whole entry): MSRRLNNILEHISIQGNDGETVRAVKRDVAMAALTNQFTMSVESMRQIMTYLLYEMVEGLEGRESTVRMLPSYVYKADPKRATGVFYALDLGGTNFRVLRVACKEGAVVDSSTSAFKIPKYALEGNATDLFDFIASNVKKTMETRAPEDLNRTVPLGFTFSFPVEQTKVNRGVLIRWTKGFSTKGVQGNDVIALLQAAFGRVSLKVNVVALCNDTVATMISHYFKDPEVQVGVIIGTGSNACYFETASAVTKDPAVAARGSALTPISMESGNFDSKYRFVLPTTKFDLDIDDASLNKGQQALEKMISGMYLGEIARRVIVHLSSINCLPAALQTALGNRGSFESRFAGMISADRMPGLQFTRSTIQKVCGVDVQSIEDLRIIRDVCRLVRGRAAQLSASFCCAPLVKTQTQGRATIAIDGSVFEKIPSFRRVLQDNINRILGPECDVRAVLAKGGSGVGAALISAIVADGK
Experiment [8] deals with Streptococcus sp. 'group A'. Description: Streptococcus pyogenes SK(-)GAS viability under kanamycin – luminescence, BacTiterGlo, confirmation, counter-screen for streptokinase expression inhibitor project, dose response (AID 1900). It is filed as functional, organism-based. Background: A counterscreen serves to expose hits that act by an unwanted route or on another target.

The subject of experiment [9] is Streptococcus. Kind of experiment: GAS UMAA2166 growth inhibition – luminescence, BacTiterGlo, counter-screen for streptokinase expression inhibitor project, dose response (AID 1915).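 Further: potency for reduction of bacterial viability or growth.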 The class given is functional, organism-based.
The target of experiment [10] is T4, Caspase-7 (Homo sapiens, UniProt P55210).
T4 sequence (P55210 whole entry): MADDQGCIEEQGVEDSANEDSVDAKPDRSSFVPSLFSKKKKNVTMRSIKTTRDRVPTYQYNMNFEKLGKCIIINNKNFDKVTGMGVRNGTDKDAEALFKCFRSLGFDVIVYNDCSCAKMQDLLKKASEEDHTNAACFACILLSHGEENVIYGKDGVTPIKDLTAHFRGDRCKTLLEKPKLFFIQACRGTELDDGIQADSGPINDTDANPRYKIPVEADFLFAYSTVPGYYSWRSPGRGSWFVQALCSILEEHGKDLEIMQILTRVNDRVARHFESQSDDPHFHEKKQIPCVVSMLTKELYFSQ
Kind of experiment: activation of caspase-7 zymogen – biochemical, absorbance, counter-screen for procaspase-3 activator project, dose response (AID 489013).

The target in experiment [11] is T5, Caspase-3 (Homo sapiens, UniProt P42574).
T5 sequence (P42574 whole entry): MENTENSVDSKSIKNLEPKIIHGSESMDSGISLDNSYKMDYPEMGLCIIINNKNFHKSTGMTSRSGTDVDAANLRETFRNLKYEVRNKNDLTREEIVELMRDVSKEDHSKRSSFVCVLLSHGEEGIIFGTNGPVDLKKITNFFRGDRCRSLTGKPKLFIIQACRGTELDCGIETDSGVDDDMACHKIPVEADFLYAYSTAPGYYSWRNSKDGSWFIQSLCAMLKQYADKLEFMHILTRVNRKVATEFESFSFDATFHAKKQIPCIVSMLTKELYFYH
Kind of experiment: activation of caspase-3 zymogen – biochemical, absorbance, dose response (AID 489014).

The structures appear in SMILES notation. The source made the active and inactive calls.

T1 sequence (Q9Y570 whole entry): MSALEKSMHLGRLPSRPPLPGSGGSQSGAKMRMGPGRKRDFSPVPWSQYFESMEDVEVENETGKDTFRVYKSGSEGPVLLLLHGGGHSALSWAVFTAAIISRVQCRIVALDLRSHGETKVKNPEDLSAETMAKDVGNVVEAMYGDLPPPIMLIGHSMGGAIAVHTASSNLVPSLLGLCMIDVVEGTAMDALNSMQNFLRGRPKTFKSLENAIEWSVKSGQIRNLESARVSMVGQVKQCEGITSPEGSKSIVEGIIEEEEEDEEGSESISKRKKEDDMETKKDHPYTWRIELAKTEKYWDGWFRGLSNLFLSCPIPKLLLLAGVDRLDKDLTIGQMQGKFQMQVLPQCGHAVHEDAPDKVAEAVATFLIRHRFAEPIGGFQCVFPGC
1-acylglycerol-3-phosphate O-acyltransferase ABHD5/Perilipin-5, sequence (Q00G26 whole entry, the tested form may be a part): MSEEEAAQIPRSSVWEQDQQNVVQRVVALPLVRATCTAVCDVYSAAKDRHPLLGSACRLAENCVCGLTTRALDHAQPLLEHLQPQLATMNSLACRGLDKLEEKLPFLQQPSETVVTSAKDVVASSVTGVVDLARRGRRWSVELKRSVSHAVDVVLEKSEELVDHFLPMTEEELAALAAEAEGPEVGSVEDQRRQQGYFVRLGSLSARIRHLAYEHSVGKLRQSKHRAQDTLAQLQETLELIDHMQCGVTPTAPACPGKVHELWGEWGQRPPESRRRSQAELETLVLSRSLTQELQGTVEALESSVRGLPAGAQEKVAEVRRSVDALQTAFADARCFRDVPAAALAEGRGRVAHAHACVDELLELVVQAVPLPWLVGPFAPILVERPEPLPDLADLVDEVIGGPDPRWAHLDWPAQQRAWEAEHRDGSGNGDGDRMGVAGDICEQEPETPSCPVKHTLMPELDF
1-acylglycerol-3-phosphate O-acyltransferase ABHD5/Perilipin-5, sequence (Q8WTS1 whole entry, the tested form may be a part): as the sequence (Q8WTS1 whole entry, the tested form may be a part) above

As usually defined, the IC50 is the concentration that gives 50% inhibition. As for `CS(=O)(=O)/C(=C/c1cccn1S(=O)(=O)c1ccccc1)CN`, the IC50 in [1] is > 20 µM (inactive); in [2], > 20 µM (not active).
On to `COc1ccc(C(=O)c2c(C)oc3ccc(O)c(CN4CCOCC4)c23)cc1`, for which, in experiment [3], the IC50 was > 50 µM (inactive).
On to `CNC(=O)Nc1ccc2nc(-c3ccco3)c(-c3ccco3)nc2c1`, for which, in experiment [4], the IC50 was 816 nM (active).
On to `COc1ccc(O)c(C(=O)/C=C/c2cc3ccccc3o2)c1`, for which the IC50 is 4.85 µM (active) in [5] and 4.8 µM (active) in experiment [6].
In the case of `O=C(Cn1sc2cc(F)ccc2c1=O)Nc1ccccc1`, in experiment [7], the IC50 is 4.34 µM (active).
The EC50 is the concentration at which the effect is half-maximal. Turning to `O=C1C2C(c3ccccc3)=NN(c3ccccc3)C2C(=O)N1c1ccccc1` (stereo unspecified), the EC50 in experiment [8] was 1.02 µM (active); in experiment [9], 5.11 µM (active); in experiment [10], > 85.3 µM (inactive); in [11] it was > 85.3 µM (inactive).
